# Results from patent US8895302B2, “Directed differentiation of primate pluripotent stem cells into functional basal forebrain cholinergic neurons (BFCNs) and medium spiny gabaergic projection neurons” (Wisconsin Alumni Research Foundation, priority 2010, dated 2014).
# How the values were obtained:
# [1] = system: hESC-derived cholinergic neurons; test: Whole-cell patch clamp, spontaneous synaptic currents of hESC-derived BFCNs; type: cell-based, human; conditions: CNQX 20 μM in bath, BFCNs differentiated 8-10 weeks
# Protocol: Whole-cell patch-clamp recordings were made from hESC-derived cholinergic neurons at 8-10 weeks age as previously reported (Johnson et al., 2007). Briefly, the neurons were held at −70 mV to record the spontaneous release and Na+/K+ channel activities. For action potential recording, the cells were held at 0 pA with current-clamp model and the steps of currents from +[…] were injected into cells by the holding electrode. The bath solution consisted of 127 mM NaCl, 1.2 mM KH2PO4, 1.9 mM KCl, 26 mM NaHCO3, 2.2 mM CaCl2, 1.4 mM MgSO4, 10 mM glucose, 290 mM mOsm and 95% O2/5% CO2. Recording pipettes were filled with an intracellular recording solution consisting of 20 mM KCl, 121 mM K^+-gluconate, 10 mM Na^+-HEPES, 10 mM BAPTA, 4 mM Mg2^+-ATP pH 7.2 and 290 mOm. Bicuculline (20 μM; Sigma) or 6-cyano-7-nitroquinoxiline-2,3-dione (CNQX, 20 μM; RBI) was applied to the bath solution to distinguish inhibitory (GABAergic) and excitatory (glutamatergic) response. Biocytin (1%, Sigma) was injected into cells after recording to identify the neuronal identity. An Olympus BX51WI microscope was used to visualize neurons. […] Data were analyzed with pClamp 9.0 (Axon instruments). […]
# To determine the functionality of the hESC-derived BFCNs, we first measured the electrophysiological properties of the BFCNs that were differentiated for 8-10 weeks by whole cell patch clamping recording (FIG. 3). […]
# striatum = test: Unilateral QA-induced striatal lesion; type: in vivo, SCID mice
# Protocol: Twenty-four male SCID mice (10 weeks of age) were anesthetized with 1-2% isoflurane mixed in oxygen, and received stereotaxic injection of 2 μl 0.1M quinolinic acid (QA, P63204; Sigma, in saline with 0.2 mg/ml ascorbic acid) in the right striatum at the coordinates (anterior-posterior (AP)=−0.7 mm, lateral (L)=+1.7 mm, vertical (V)=−3.2 mm) to create the unilateral lesion (Hansson et al., 1999).
# To assess the function of in vitro produced human medium spiny GABA projection neurons, we created a unilateral QA-induced striatal lesion model in immune deficient SCID mice (Sanberg et al., 1989; Reynolds et al., 2006). Four weeks post injection of QA, majority of neurons, as labeled by NeuN, including FoxP2 and DARPP32 expressing GABA projection neurons in the striatum were lost, resulting in a smaller striatum in the lesion side as compared to the non-lesion side. Accompanying the loss of neurons, there was a significant increased level of GFAP expression in astrocytes.
# [2] = system: hESC-derived primitive neural stem cells; test: Patterning of hESC-derived primitive neural stem cells to ventral telencephalic progenitors (immunocytochemistry, FACS, Western blotting); type: cell-based, human
# Protocol: (§1) The procedure for differentiating hESCs to neuroectodermal cells was the same as described (Li et al., 2005; Zhang et al., 2001). hESCs were differentiated to Pax6-expressing primitive neural stem cells for 10-12 days in a neural induction medium consisting of DMEM/F12, N2 supplement and non-essential amino acids (Pankratz et al., 2007; Zhang et al., 2001). The primitive neural stem cells were then treated with SHH (50-1000 ng/ml) or its small molecule agonist purmorphamine (0.1-1.5 uM, Calbiochem, San Diego, Calif., USA) from day 12 to day 26 to specify ventral progenitors. During this period, neural stem cells grew rapidly and formed neural tube-like rosettes, which were gently blown off at day 15-17 and grown in suspension under the same medium. For neuronal differentiation, neural progenitor clusters were dissociated with Accutase at 37° C. for 5 minutes and plated onto ornithine/laminin-coated coverslips at day 26 in Neurobasal medium.
# Immunocytochemical staining on coverslip cultures and free-floating brain sections was performed as previously described (Li et al., 2005; Yang et al., 2008). The images were visualized using a Nikon TE600 fluorescence microscope (Nikon Instruments, Melville, N.Y., USA) or a Nikon C1 laser-scanning confocal microscope.
# Protein samples were collected at day 25 after differentiation. Western blot analysis was performed as described (Li et al., 2009). Proteins (25 μg) were separated by 10% acrylamide gel and blotted with antibodies against Nkx2.1 (1:2,000, Mouse IgG, Chemicon & Millipore), Pax6 (1:4,000, Rabbit IgG, Covance), and β-actin (1:4,000, Mouse IgG, Sigma).
# To quantify the differentiation efficiency of forebrain progenitors, neural progenitor spheres were dissociated into single cells and quantified by fluorescent activated cell sorting (FACS) (LaVaute et al., 2009). For quantifying differentiated cholinergic neurons, the neural progenitor spheres were digested with Accutase (Innovation Cell Technology) into small clusters and plated on coverslips for immunostaining as previous described (Li et al., 2005; Hu et al., 2009). Optical fields of cultures were randomly selected, and the neuronal cells and total cells (Hoechst stained) were counted using a Metamorph software. All the experiments were triplicated and the results were reproduced in two different cell lines (H1 and H9). For statistical analysis, 2-side t-test was used.
# hESCs were first differentiated to Pax6-expressing pNSCs in a chemically defined medium as previously described (Johnson et al., 2007; Li et al., 2005; Zhang et al., 2001). We first determined the time course of SHH action by applying SHH for a week at day 10, 13, and 17 and by quantifying cells that express Nkx2.1, an MGE transcription factor.
# Basal forebrain cholinergic neurons (BFCNs) are differentiated from progenitors in the MGE and POa/AEP domains that express Nkx2.1 (Wilson and Rubenstein, 2000; Zhao et al., 2003). […] In contrast, the expression of dorsal telencephalic transcription factors, Pax6 and Emx1, was decreased (FIG. 1B). Immunostaining and Western blotting analyses confirmed that Nkx2.1-expressing cell population increased progressively, with 97±1.3% of the cells being Nkx2.1 positive in the presence of 1000 ng/ml of SHH, whereas the population of Pax6 positive dorsal progenitors decreased, to less than 0.01% under 1000 ng/mlof SHH (FIG. 1C, D, E).
# [3] = system: hESC-derived primitive neural stem cells; test: RT-qPCR of dorsal/ventral transcription factors in patterned neural stem cells; type: cell-based, human; conditions: SHH 200 or 0.65 uM of purmorphamine, day 25
# Protocol: as §1
# Total RNA was extracted using Trizol reagent (Invitrogen), and cDNA was reverse-transcribed using the SuperScript III First-Strand (Invitrogen). Real-time PCR was performed using the Bio-Rad MyiQ real-time PCR detection system as described (Du et al., 2009).
# Basal forebrain cholinergic neurons (BFCNs) are differentiated from progenitors in the MGE and POa/AEP domains that express Nkx2.1 (Wilson and Rubenstein, 2000; Zhao et al., 2003). […]
# [4] = SHH 200 ng/ml or purmorphamine 0.65 uM, day 30
smiles,measurement,setting,value
"N#Cc1cc2[nH]c(=O)c(=O)[nH]c2cc1[N+](=O)[O-] [CNQX, 6-cyano-7-nitroquinoxiline-2,3-dione]",spontaneous synaptic activity,[1],partially blocked
"O=C(O)c1cccnc1C(=O)O [QA, quinolinic acid]",stride length on the right limbs versus control animals that received aCSF (Treadscan),striatum; lesioned mice,longer stride length
same,behavioural outcome of unilateral striatal lesion,"striatum; rotarod, open field, Treadscan",locomotion deficits typical of HD
c1ccc2c(Oc3nc(Nc4ccc(N5CCOCC5)cc4)c4ncn(C5CCCCC5)c4n3)cccc2c1 [purmorphamine],GABA interneuron progenitor marker Nkx2.1 (immunostaining),[2]; [4],minimal expression
same,cortical marker Pax6 (immunostaining),[2]; [4],decreased expression
same,"striatal GABA neuron progenitor markers Meis2, Mash1 and Otx2 (immunostaining)",[2]; [4],increased expression
same,purmorphamine concentration equivalent to SHH at 200 ng/ml for GABAergic progenitors,[2]; pNSCs treated at day 10-12,~0.65 µM
same,purmorphamine concentration equivalent to SHH at 500 ng/ml for cholinergic progenitors,[2]; pNSCs treated at day 10-12,~1 µM
same,Gsh2 mRNA versus control group (RT-qPCR),[3],upregulated expression
same,Pax6 mRNA versus control group (RT-qPCR),[3],downregulation
